Data published in PubChem BioAssay AID1259407 (Chemical Carcinogenesis Research Information System (CCRIS), 2018).
The source made the active and inactive calls. The rule behind the calls is not given here.

Tested on: CCRIS mutagenicity, Ames/micronucleus/aberration tests
Assay: CCRIS mutagenicity studies
[1] = Test System: AMES SALMONELLA TYPHIMURIUM, Strain/Indicator: TA98, Metabolic Activation: NONE, Method: PREINCUBATION
[2] = Test System: AMES SALMONELLA TYPHIMURIUM, Strain/Indicator: TA98, Metabolic Activation: NONE, Method: STANDARD PLATE
[3] = Test System: AMES SALMONELLA TYPHIMURIUM, Strain/Indicator: TA100, Metabolic Activation: NONE, Method: PREINCUBATION
[4] = Test System: AMES SALMONELLA TYPHIMURIUM, Strain/Indicator: TA100, Metabolic Activation: NONE, Method: STANDARD PLATE
[5] = Test System: AMES SALMONELLA TYPHIMURIUM, Strain/Indicator: TA1535, Metabolic Activation: NONE, Method: PREINCUBATION
[6] = Test System: AMES SALMONELLA TYPHIMURIUM, Strain/Indicator: TA1535, Metabolic Activation: NONE, Method: STANDARD PLATE

For `C1CCC2CCCCC2C1` (stereo unspecified), the mutagenic call (End Point: IN VIVO MICRONUCLEUS, Test System: PERIPHERAL BLOOD LYMPHOCYTES, Species: MOUSE, Strain/Sex: B6C3F1/FEMALE, Route: INHALATION) was “inactive; negative”, the mutagenic call (End Point: IN VIVO MICRONUCLEUS, Test System: PERIPHERAL BLOOD LYMPHOCYTES, Species: MOUSE, Strain/Sex: B6C3F1/MALE, Route: INHALATION) was “active; positive” and the mutagenic call (Test System: AMES SALMONELLA TYPHIMURIUM, Strain/Indicator: TA97, Metabolic Activation: HAMSTER, LIVER, S-9 (10%), AROCLOR 1254, Method: PREINCUBATION) was “inactive; negative”. For the same molecule, the mutagenic call (Test System: AMES SALMONELLA TYPHIMURIUM, Strain/Indicator: TA97, Metabolic Activation: HAMSTER, LIVER, S-9 (30%), AROCLOR 1254, Method: PREINCUBATION) was “inactive; negative”, the mutagenic call (Test System: AMES SALMONELLA TYPHIMURIUM, Strain/Indicator: TA97, Metabolic Activation: NONE, Method: PREINCUBATION) was “inactive; negative” and the mutagenic call (Test System: AMES SALMONELLA TYPHIMURIUM, Strain/Indicator: TA97, Metabolic Activation: RAT, LIVER, S-9 (10%), AROCLOR 1254, Method: PREINCUBATION) was “inactive; negative”. For the same molecule, the mutagenic call (Test System: AMES SALMONELLA TYPHIMURIUM, Strain/Indicator: TA97, Metabolic Activation: RAT, LIVER, S-9 (30%), AROCLOR 1254, Method: PREINCUBATION) was “inactive; negative”, the mutagenic call (Test System: AMES SALMONELLA TYPHIMURIUM, Strain/Indicator: TA98, Metabolic Activation: HAMSTER, LIVER, S-9 (10%), AROCLOR 1254, Method: PREINCUBATION) was “inactive; negative” and the mutagenic call (Test System: AMES SALMONELLA TYPHIMURIUM, Strain/Indicator: TA98, Metabolic Activation: HAMSTER, LIVER, S-9 (30%), AROCLOR 1254, Method: PREINCUBATION) was “inactive; negative”. The mutagenic call (Test System: AMES SALMONELLA TYPHIMURIUM, Strain/Indicator: TA98, Metabolic Activation: HAMSTER, LIVER, S-9, AROCLOR 1254, Method: STANDARD PLATE) was “inactive; negative”, the mutagenic call [1] was “inactive; negative” and the mutagenic call [2] was “inactive; negative”. The mutagenic call (Test System: AMES SALMONELLA TYPHIMURIUM, Strain/Indicator: TA98, Metabolic Activation: RAT, LIVER, S-9 (10%), AROCLOR 1254, Method: PREINCUBATION) was “inactive; negative”, the mutagenic call (Test System: AMES SALMONELLA TYPHIMURIUM, Strain/Indicator: TA98, Metabolic Activation: RAT, LIVER, S-9 (30%), AROCLOR 1254, Method: PREINCUBATION) was “inactive; negative” and the mutagenic call (Test System: AMES SALMONELLA TYPHIMURIUM, Strain/Indicator: TA98, Metabolic Activation: RAT, LIVER, S-9, AROCLOR 1254, Method: STANDARD PLATE) was “inactive; negative”. For the same molecule, the mutagenic call (Test System: AMES SALMONELLA TYPHIMURIUM, Strain/Indicator: TA100, Metabolic Activation: HAMSTER, LIVER, S-9 (10%), AROCLOR 1254, Method: PREINCUBATION) was “inactive; negative”, the mutagenic call (Test System: AMES SALMONELLA TYPHIMURIUM, Strain/Indicator: TA100, Metabolic Activation: HAMSTER, LIVER, S-9 (30%), AROCLOR 1254, Method: PREINCUBATION) was “inactive; negative” and the mutagenic call (Test System: AMES SALMONELLA TYPHIMURIUM, Strain/Indicator: TA100, Metabolic Activation: HAMSTER, LIVER, S-9, AROCLOR 1254, Method: STANDARD PLATE) was “inactive; negative”. For the same molecule, the mutagenic call [3] was “inactive; negative; precipitation occurred at 333 ug/plate”, the mutagenic call [4] was “inactive; negative” and the mutagenic call (Test System: AMES SALMONELLA TYPHIMURIUM, Strain/Indicator: TA100, Metabolic Activation: RAT, LIVER, S-9 (10%), AROCLOR 1254, Method: PREINCUBATION) was “inactive; negative”. For the same molecule, the mutagenic call (Test System: AMES SALMONELLA TYPHIMURIUM, Strain/Indicator: TA100, Metabolic Activation: RAT, LIVER, S-9 (30%), AROCLOR 1254, Method: PREINCUBATION) was “inactive; negative”, the mutagenic call (Test System: AMES SALMONELLA TYPHIMURIUM, Strain/Indicator: TA100, Metabolic Activation: RAT, LIVER, S-9, AROCLOR 1254, Method: STANDARD PLATE) was “inactive; negative” and the mutagenic call (Test System: AMES SALMONELLA TYPHIMURIUM, Strain/Indicator: TA1535, Metabolic Activation: HAMSTER, LIVER, S-9 (10%), AROCLOR 1254, Method: PREINCUBATION) was “inactive; negative”. For the same molecule, the mutagenic call (Test System: AMES SALMONELLA TYPHIMURIUM, Strain/Indicator: TA1535, Metabolic Activation: HAMSTER, LIVER, S-9 (30%), AROCLOR 1254, Method: PREINCUBATION) was “inactive; negative”, the mutagenic call (Test System: AMES SALMONELLA TYPHIMURIUM, Strain/Indicator: TA1535, Metabolic Activation: HAMSTER, LIVER, S-9, AROCLOR 1254, Method: STANDARD PLATE) was “inactive; negative” and the mutagenic call [5] was “inactive; negative”. For the same molecule, the mutagenic call [6] was “inactive; negative”, the mutagenic call (Test System: AMES SALMONELLA TYPHIMURIUM, Strain/Indicator: TA1535, Metabolic Activation: RAT, LIVER, S-9 (10%), AROCLOR 1254, Method: PREINCUBATION) was “inactive; negative” and the mutagenic call (Test System: AMES SALMONELLA TYPHIMURIUM, Strain/Indicator: TA1535, Metabolic Activation: RAT, LIVER, S-9 (30%), AROCLOR 1254, Method: PREINCUBATION) was “inactive; negative”. The mutagenic call (Test System: AMES SALMONELLA TYPHIMURIUM, Strain/Indicator: TA1535, Metabolic Activation: RAT, LIVER, S-9, AROCLOR 1254, Method: STANDARD PLATE) was “inactive; negative”, the mutagenic call (Test System: AMES SALMONELLA TYPHIMURIUM, Strain/Indicator: TA1537, Metabolic Activation: HAMSTER, LIVER, S-9, AROCLOR 1254, Method: STANDARD PLATE) was “inactive; negative” and the mutagenic call (Test System: AMES SALMONELLA TYPHIMURIUM, Strain/Indicator: TA1537, Metabolic Activation: NONE, Method: STANDARD PLATE) was “inactive; negative”. The mutagenic call (Test System: AMES SALMONELLA TYPHIMURIUM, Strain/Indicator: TA1537, Metabolic Activation: RAT, LIVER, S-9, AROCLOR 1254, Method: STANDARD PLATE) was “inactive; negative”, the mutagenic call (Test System: AMES SALMONELLA TYPHIMURIUM, Strain/Indicator: TA1538, Metabolic Activation: HAMSTER, LIVER, S-9, AROCLOR 1254, Method: STANDARD PLATE) was “inactive; negative” and the mutagenic call (Test System: AMES SALMONELLA TYPHIMURIUM, Strain/Indicator: TA1538, Metabolic Activation: NONE, Method: STANDARD PLATE) was “inactive; negative”. For the same molecule, the mutagenic call (Test System: AMES SALMONELLA TYPHIMURIUM, Strain/Indicator: TA1538, Metabolic Activation: RAT, LIVER, S-9, AROCLOR 1254, Method: STANDARD PLATE) was “inactive; negative”, the mutagenic call (Test System: MOUSE LYMPHOMA, Strain/Indicator: L5178Y (TK+/TK-), Metabolic Activation: NONE, Method: SUSPENSION/PLATE) was “inactive; negative. reevaluation of results: negative” and the mutagenic call (Test System: MOUSE LYMPHOMA, Strain/Indicator: L5178Y (TK+/TK-), Metabolic Activation: RAT, LIVER, S-9, AROCLOR 1254, Method: SUSPENSION/PLATE) was “inactive; negative. reevaluation of results: negative”.
In the case of `O=C(O)C(Br)(Br)Br`, the mutagenic call (Test System: AMES SALMONELLA TYPHIMURIUM, Strain/Indicator: RSJ100, Metabolic Activation: NONE, Method: PREINCUBATION) is reported as “inactive; negative”, the mutagenic call (Test System: AMES SALMONELLA TYPHIMURIUM, Strain/Indicator: RSJ100, Metabolic Activation: RAT LIVER S-9, Method: PREINCUBATION) is reported as “inactive; negative” and the mutagenic call [1] is reported as “inactive; negative”. The mutagenic call (Test System: AMES SALMONELLA TYPHIMURIUM, Strain/Indicator: TA98, Metabolic Activation: RAT LIVER S-9, Method: PREINCUBATION) was “inactive; negative”, the mutagenic call (Test System: AMES SALMONELLA TYPHIMURIUM, Strain/Indicator: TA100, Metabolic Activation: NONE, Method: FLUCTUATION TEST) was “active; positive” and the mutagenic call [3] was “inactive; negative”. The mutagenic call (Test System: AMES SALMONELLA TYPHIMURIUM, Strain/Indicator: TA100, Metabolic Activation: RAT LIVER S-9, Method: PREINCUBATION) was “inactive; negative” and the mutagenic call (Test System: AMES SALMONELLA TYPHIMURIUM, Strain/Indicator: TA100, Metabolic Activation: RAT, LIVER, S-9, AROCLOR 1254, Method: FLUCTUATION TEST) was “active; positive”.
In the case of `c1ccc2c(c1)-c1nc3ccccc3c3c1c-2nc1ccccc13`, the mutagenic call [2] is reported as “inactive; negative”, the mutagenic call (Test System: AMES SALMONELLA TYPHIMURIUM, Strain/Indicator: TA98, Metabolic Activation: RAT LIVER S-9, AROCLOR 1254, Method: STANDARD PLATE) is reported as “inactive; negative” and the mutagenic call (Test System: ESCHERICHIA COLI, Strain/Indicator: WP2 UVR A, Metabolic Activation: NONE, Method: STANDARD PLATE) is reported as “inactive; negative”. The mutagenic call (Test System: ESCHERICHIA COLI, Strain/Indicator: WP2 UVR A, Metabolic Activation: RAT LIVER S-9, AROCLOR 1254, Method: STANDARD PLATE) was “inactive; negative”.
In the case of `COc1ccc(CC2CO2)cc1` (stereo unspecified), the mutagenic call [3] is reported as “active; positive”, the mutagenic call [4] is reported as “active; positive” and the mutagenic call [5] is reported as “active; positive”. The mutagenic call [6] was “active; positive”.
With `O=C1c2ccccc2C(=O)N1CCCN1c2ccccc2Sc2ccc(Cl)cc21` the mutagenic call (Test System: AMES SALMONELLA TYPHIMURIUM, Strain/Indicator: TA98, Metabolic Activation: NONE, Method: SPOT TEST) was “inactive; negative”.
